# Reference: patent publication US20250171437A1 (Agios Pharmaceuticals,Inc., priority 2022, published 2025)
# Biological target: T1, human PAH with the R408W mutation (A375 R408W cells) (Homo sapiens, UniProt P00439, R408W)
# T1 construct: expressed in transfected cells
# T1 sequence (P00439 1-452 R408W): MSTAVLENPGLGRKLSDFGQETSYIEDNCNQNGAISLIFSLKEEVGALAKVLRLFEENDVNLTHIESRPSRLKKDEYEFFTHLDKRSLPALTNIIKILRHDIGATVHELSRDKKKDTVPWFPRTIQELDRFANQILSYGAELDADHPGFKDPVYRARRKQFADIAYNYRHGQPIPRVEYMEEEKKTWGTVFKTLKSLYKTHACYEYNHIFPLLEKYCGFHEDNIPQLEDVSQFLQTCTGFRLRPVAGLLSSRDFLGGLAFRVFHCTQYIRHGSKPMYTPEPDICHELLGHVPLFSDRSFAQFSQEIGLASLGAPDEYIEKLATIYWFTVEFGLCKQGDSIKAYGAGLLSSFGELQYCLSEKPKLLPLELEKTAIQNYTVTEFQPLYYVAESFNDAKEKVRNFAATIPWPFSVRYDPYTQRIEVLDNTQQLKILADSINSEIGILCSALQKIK
# Experiment: Cell Based Phenylalanine Flux Assay
# Details: A375 R408W cells; 24 hrs with compound, then 20 μM sepiapterin and 800 μM 13C9,15N-Phenylalanine for 4 hours; 13C-Tyrosine by LC-MS; average where tested multiple times
# How it was run: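 Phenylalanine-to-tyrosine flux is measured in A375 cells carrying stable human R408W PAH. After 24 h compound exposure, 13C9,15N-Phe (800 μM) with sepiapterin (20 μM) is supplied for 4 h and media 13C-Tyr is read by LC-MS; AC50s are binned.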
row,Compound,AC50 [µM]
1,"CN(C)c1cn2ncc(C(=O)N3CCc4[nH]cnc4[C@H]3c3nc4cc(F)ccc4o3)c2cc1Cl [Example 207, (S)-(5-chloro-6-(dimethylamino)pyrazolo[1,5-a]pyridin-3-yl)(4-(5-fluorobenzo[d]oxazol-2-yl)-6,7-dihydro-1H-imidazo[4,5-c]pyridin-5(4H)-yl)methanone]",≤ 0.5
2,"O=C(c1nnc(C2CC2)o1)N1CCc2[nH]cnc2[C@H]1c1nc2c(F)ccc(F)c2o1 [Example 855, (S)-(5-cyclopropyl-1,3,4-oxadiazol-2-yl)(4-(4,7-difluorobenzo[d]oxazol-2-yl)-6,7-dihydro-1H-imidazo[4,5-c]pyridin-5(4H)-yl)methanone]",≤ 0.5
3,"COc1ccc2oc([C@H]3c4nc[nH]c4CCN3C(=O)c3nc(C(F)F)nn3C)nc2c1 [Example 550, (R)-(3-(difluoromethyl)-1-methyl-1H-1,2,4-triazol-5-yl)(4-(5-methoxybenzo[d]oxazol-2-yl)-6,7-dihydro-1H-imidazo[4,5-c]pyridin-5(4H)-yl)methanone]",1 to 5
4,"Cc1cccc2oc([C@H]3c4nc[nH]c4CCN3C(=O)c3oc(C(C)(C)O)nc3C(F)F)nc12 [Example 362, (R)-(4-(difluoromethyl)-2-(2-hydroxypropan-2-yl)oxazol-5-yl)(4-(4-methylbenzo[d]oxazol-2-yl)-6,7-dihydro-1H-imidazo[4,5-c]pyridin-5(4H)-yl)methanone]",1 to 5
5,"O=C(c1oc(-c2cnccn2)nc1C(F)F)N1CCc2[nH]cnc2[C@@H]1c1nc2cccc(F)c2o1 [Example 694, (R)-(4-(difluoromethyl)-2-(pyrazin-2-yl)oxazol-5-yl)(4-(7-fluorobenzo[d]oxazol-2-yl)-6,7-dihydro-1H-imidazo[4,5-c]pyridin-5(4H)-yl)methanone]",≤ 0.5
6,"O=C(c1ocnc1C(F)F)N1CCc2[nH]cnc2[C@H]1c1nc2cc(C(F)(F)F)ccc2o1 [Example 329, (S)-(4-(difluoromethyl)oxazol-5-yl)(4-(5-(trifluoromethyl)benzo[d]oxazol-2-yl)-6,7-dihydro-1H-imidazo[4,5-c]pyridin-5(4H)-yl)methanone]",≤ 0.5
7,"O=C(c1nnc(-c2ccccn2)o1)N1CCc2[nH]cnc2[C@@H]1c1nc2c(F)cccc2o1 [Example 334, (R)-(4-(4-fluorobenzo[d]oxazol-2-yl)-6,7-dihydro-1H-imidazo[4,5-c]pyridin-5(4H)-yl)(5-(pyridin-2-yl)-1,3,4-oxadiazol-2-yl)methanone]",1 to 5
8,"CC(F)(F)c1ncoc1C(=O)N1CCc2[nH]cnc2[C@H]1c1nc2c(F)cccc2o1 [Example 651, (S)-(4-(1,1-difluoroethyl)oxazol-5-yl)(4-(4-fluorobenzo[d]oxazol-2-yl)-6,7-dihydro-1H-imidazo[4,5-c]pyridin-5(4H)-yl)methanone]",≤ 0.5
9,"O=C(c1nnc(-c2ccccn2)o1)N1CCc2[nH]cnc2[C@H]1c1nc2cccc(F)c2o1 [Example 335, (S)-(4-(7-fluorobenzo[d]oxazol-2-yl)-6,7-dihydro-1H-imidazo[4,5-c]pyridin-5(4H)-yl)(5-(pyridin-2-yl)-1,3,4-oxadiazol-2-yl)methanone]",≤ 0.5
10,"Cn1cnc(-c2nc(C(F)F)c(C(=O)N3CCc4[nH]cnc4[C@@H]3c3nc4cccc(F)c4o3)o2)c1 [Example 891, (R)-(4-(difluoromethyl)-2-(1-methyl-1H-imidazol-4-yl)oxazol-5-yl)(4-(7-fluorobenzo[d]oxazol-2-yl)-1,4,6,7-tetrahydro-5H-imidazo[4,5-c]pyridin-5-yl)methanone]",1 to 5
11,"CN1CCN(c2ccc3c(C(=O)N4CCc5[nH]cnc5[C@@H]4c4nc5cc(F)ccc5o4)cnn3c2)CC1 [Example 66, (R)-(4-(5-fluorobenzo[d]oxazol-2-yl)-6,7-dihydro-1H-imidazo[4,5-c]pyridin-5(4H)-yl)(6-(4-methylpiperazin-1-yl)pyrazolo[1,5-a]pyridin-3-yl)methanone]",≥ 5
12,"O=C(c1ccnn1C(F)(F)F)N1CCc2[nH]cnc2[C@H]1c1nc2cc(F)ccc2o1 [Example 261, (S)-(4-(5-fluorobenzo[d]oxazol-2-yl)-6,7-dihydro-1H-imidazo[4,5-c]pyridin-5(4H)-yl)(1-(trifluoromethyl)-1H-pyrazol-5-yl)methanone]",0.5 to 1
13,"CC(C)(O)c1nc(C(F)F)c(C(=O)N2CCc3[nH]cnc3[C@H]2c2nc3c(C(F)(F)F)cccc3o2)o1 [Example 463, (S)-(4-(difluoromethyl)-2-(2-hydroxypropan-2-yl)oxazol-5-yl)(4-(4-(trifluoromethyl)benzo[d]oxazol-2-yl)-6,7-dihydro-1H-imidazo[4,5-c]pyridin-5(4H)-yl)methanone]",≤ 0.5
14,"CC(C)(O)c1nc(C(F)(F)F)c(C(=O)N2CCc3[nH]cnc3[C@H]2c2nc3cc(F)ccc3o2)o1 [Example 45, (S)-(4-(5-fluorobenzo[d]oxazol-2-yl)-6,7-dihydro-1H-imidazo[4,5-c]pyridin-5(4H)-yl)(2-(2-hydroxypropan-2-yl)-4-(trifluoromethyl)oxazol-5-yl)methanone]",≤ 0.5
15,"Cn1ccc(-c2nnc(C(=O)N3CCc4[nH]cnc4[C@H]3c3nc4cc(F)ccc4o3)o2)n1 [Example 106, (S)-(4-(5-fluorobenzo[d]oxazol-2-yl)-6,7-dihydro-1H-imidazo[4,5-c]pyridin-5(4H)-yl)(5-(1-methyl-1H-pyrazol-3-yl)-1,3,4-oxadiazol-2-yl)methanone]",1 to 5
16,"CC(C)(O)c1nc(C(F)F)c(C(=O)N2CCc3[nH]cnc3[C@H]2c2nc3cc(Br)ccc3o2)o1 [Example 415, [(4S)-4-(5-bromo-1,3-benzoxazol-2-yl)-1,4,6,7-tetrahydroimidazo[4,5-c]pyridin-5-yl]-[4-(difluoromethyl)-2-(1-hydroxy-1-methyl-ethyl)oxazol-5-yl]methanone]",0.5 to 1
17,"Cc1ccc2nc([C@H]3c4nc[nH]c4CCN3C(=O)c3ocnc3C(F)F)oc2c1 [Example 883, (R)-(4-(difluoromethyl)oxazol-5-yl)(4-(6-methylbenzo[d]oxazol-2-yl)-6,7-dihydro-1H-imidazo[4,5-c]pyridin-5(4H)-yl)methanone]",0.5 to 1
18,"Cc1cccc2nc([C@@H]3c4nc[nH]c4CCN3C(=O)c3nnc(-c4ccn(C)n4)o3)oc12 [Example 869, (S)-(5-(1-methyl-1H-pyrazol-3-yl)-1,3,4-oxadiazol-2-yl)(4-(7-methylbenzo[d]oxazol-2-yl)-6,7-dihydro-1H-imidazo[4,5-c]pyridin-5(4H)-yl)methanone]",≤ 0.5
19,"Cc1cccc2nc([C@H]3c4nc[nH]c4CCN3C(=O)c3nnc(-c4ccn(C(F)F)n4)o3)oc12 [Example 859, (R)-(5-(1-(difluoromethyl)-1H-pyrazol-3-yl)-1,3,4-oxadiazol-2-yl)(4-(7-methylbenzo[d]oxazol-2-yl)-6,7-dihydro-1H-imidazo[4,5-c]pyridin-5(4H)-yl)methanone]",1 to 5
20,"O=C(c1cnn2cc(N3CCC(F)CC3)ccc12)N1CCc2[nH]cnc2[C@@H]1c1nc2cccc(F)c2o1 [Example 370, (R)-(4-(7-fluorobenzo[d]oxazol-2-yl)-6,7-dihydro-1H-imidazo[4,5-c]pyridin-5(4H)-yl)(6-(4-fluoropiperidin-1-yl)pyrazolo[1,5-a]pyridin-3-yl)methanone]",1 to 5
21,"O=C(c1nnc(C2CC2)o1)N1CCc2[nH]cnc2[C@@H]1c1nc2cc(F)ccc2o1 [Example 16, (R)-(5-cyclopropyl-1,3,4-oxadiazol-2-yl)(4-(5-fluorobenzo[d]oxazol-2-yl)-6,7-dihydro-1H-imidazo[4,5-c]pyridin-5(4H)-yl)methanone]",1 to 5
22,"O=C(c1oc(C2(O)CC2)nc1C(F)F)N1CCc2[nH]cnc2[C@@H]1c1nc2cccc(F)c2o1 [Example 213, (R)-(4-(difluoromethyl)-2-(1-hydroxycyclopropyl)oxazol-5-yl)(4-(7-fluorobenzo[d]oxazol-2-yl)-6,7-dihydro-1H-imidazo[4,5-c]pyridin-5(4H)-yl)methanone]",0.5 to 1
23,"Cc1nc(-c2cnn(C)c2)oc1C(=O)N1CCc2[nH]cnc2[C@H]1c1nc2cccc(F)c2o1 [Example 596, (S)-(4-(7-fluorobenzo[d]oxazol-2-yl)-6,7-dihydro-1H-imidazo[4,5-c]pyridin-5(4H)-yl)(4-methyl-2-(1-methyl-1H-pyrazol-4-yl)oxazol-5-yl)methanone]",≤ 0.5

# Same assay, conditions: A375 cells expressing R408W PAH; 24 hrs with compound, then 20 μM sepiapterin and 800 μM 13C9,15N-Phenylalanine for 4 hours; 13C-Tyrosine by LC-MS; average where tested multiple times
row,Compound,AC50 [µM]
1,COCc1nnc(C(=O)N2CCc3[nH]cnc3C2c2nc3cc(F)ccc3o2)o1 (stereo not shown),1 to 5
2,CC(C)(C)OC(=O)N1CCN(c2ccc3c(C(=O)N4CCc5[nH]cnc5C4c4nc5cc(F)ccc5o4)cnn3c2)CC1 (stereo not shown),1 to 5
3,O=C(c1ccnn1-c1ccccn1)N1CCc2[nH]cnc2C1c1nc2cc(F)ccc2o1 (stereo not shown),1 to 5
4,"O=C(c1cnn2cc(OCCn3cccn3)ccc12)N1CCc2[nH]cnc2[C@H]1c1nc2cc(F)ccc2o1 (single isomer, unassigned)",1 to 5
5,O=C(c1cn[nH]c1C(F)F)N1CCc2[nH]cnc2C1c1nc2cc(F)ccc2o1 (stereo not shown),≥ 5
6,Cc1ccc2oc(C3c4nc[nH]c4CCN3C(=O)c3cnn4cc(CCN(C)C)ccc34)nc2c1 (stereo not shown),1 to 5
7,O=C(c1nnc(-c2cn[nH]c2)o1)N1CCc2[nH]cnc2C1c1nc2c(F)cccc2o1 (stereo not shown),1 to 5
8,Cc1ccc2nc(C3c4nc[nH]c4CCN3C(=O)c3ocnc3C#N)oc2c1 (stereo not shown),1 to 5
